Where “and” joins values, the source holds several entries; their conditions need not be identical. Equal values may be shown once.
Test: Henry solubility constant Hcp at 298.15 K (mol/(m3 Pa))
Details: reference: Lau et al. (2006)

With `Clc1ccc(-c2ccc(Cl)cc2)cc1` [4,4'-dichlorobiphenyl] as the compound, how does the “Henry solubility constant Hcp” value read?
The value was 0.05 and 0.033.

For `Brc1ccc(Oc2ccc(Br)cc2Br)c(Br)c1` [2,2',4,4'-tetrabromodiphenyl ether], which “Henry solubility constant Hcp” value is on record?
Its value is 0.16 and 0.17.

Which “Henry solubility constant Hcp” value does the source give for `Brc1ccc(Oc2ccc(Br)cc2)cc1` [4,4'-dibromodiphenyl ether] here?
Its value is 0.083 and 0.071.

For `Clc1ccc(-c2cc(Cl)c(Cl)cc2Cl)cc1Cl` [2,3',4,4',5-pentachlorobiphenyl], which “Henry solubility constant Hcp” value is on record?
The value was 0.011 and 0.0056.

For `Brc1ccc(Oc2ccc(Br)cc2Br)cc1` [2,4,4'-tribromodiphenyl ether], which “Henry solubility constant Hcp” value is on record?
Its value is 0.11 and 0.077.

With `Clc1ccc(-c2ccccc2Cl)cc1` [2,4'-dichlorobiphenyl] as the compound, how does the “Henry solubility constant Hcp” value read?
Its value is 0.026 and 0.019.

For `Brc1ccc(Oc2cc(Br)c(Br)cc2Br)c(Br)c1` [2,2',4,4',5-pentabromodiphenyl ether], which “Henry solubility constant Hcp” value is on record?
Its value is 0.62 and 0.33.

With `Brc1ccc(Oc2c(Br)cc(Br)cc2Br)c(Br)c1` [2,2',4,4',6-pentabromodiphenyl ether] as the compound, how does the “Henry solubility constant Hcp” value read?
The value was 0.33 and 0.32.

Which “Henry solubility constant Hcp” value does the source give for `Clc1ccc(-c2ccc(Cl)c(Cl)c2)cc1Cl` [3,3',4,4'-tetrachlorobiphenyl] here?
Its value is 0.031 and 0.018.

With `Brc1ccc(Oc2cc(Br)c(Br)c(Br)c2Br)cc1` [2,3,4,4',5-pentabromodiphenyl ether] as the compound, how does the “Henry solubility constant Hcp” value read?
The value was 0.62 and 0.77.

Which “Henry solubility constant Hcp” value does the source give for `Brc1ccc(Oc2ccccc2)cc1` [4-bromodiphenyl ether] here?
Its value is 0.05 and 0.043.

With `Clc1ccccc1-c1ccccc1` [2-chlorobiphenyl] as the compound, how does the “Henry solubility constant Hcp” value read?
Its value is 0.03 and 0.023.
